# Where two headings read alike, the source gives them in different places.
# Assays:
# gastric mucosa [1] = details: rats; caused by acetylsalicylic acid; cited from earlier work
# cyanide intoxication = details: in vivo; cited from earlier work
# L1210 leukemia = details: advanced L1210 leukemia; cited from earlier work
# [2] = system: bacterial and yeast systems; details: cited from earlier work
# sodium sulfide = details: in vivo; cited from earlier work
# urinary calculi (stones) = details: rats fed calcium-oxalate lithogenic diet, versus control rats; cited from earlier work
# [3] = system: acrylamide neuropathy of axons; details: in vivo; cited from earlier work
# gastric mucosa [4] = details: guinea pigs; caused by acetylsalicylic acid; cited from earlier work
# [5] = system: emphysema and restrictive airway disease; assay: Inhalation of nebulized sodium pyruvate solution by a patient; lung capacity and lung function tests; assay type: in vivo, human
# Protocol: Subject: A person suffering from emphysema and restrictive airway disease was treated as described below for three (3) months.
# Treatment: The treatment was conducted as follows: Five (5) milliliters of five (5) millimolar sodium pyruvate solution is filter sterilized through a 0.2 micron filter. The sterile pyruvate solution is placed into a “Pulmo Aid” nebulizer manufactured by DeVilbiss Co., Somerset, Pa. 15501-0635. The sterile pyruvate solution is nebulized by the Pulmo Aid device fitted with a disposable nebulizer and inhaled by the patient. The patient inhales normally from the Pulmo Aid nebulizer until all of the solution has been nebulized and inhaled. This inhalation step typically takes about ten (10) to twenty (20) minutes.
# The patient is treated with this inhalation therapy periodically. Initially, treatments are about four (4) times a day at about six (6) hour intervals. Treatments were reduced to three (3) times a day at about eight (8) hour intervals after 30 days of therapy. Treatments were further reduced to once a day 60 DAYS AFTER ONSET OF TREATMENT. After ninety (90) days treatments are three to five times a week.
# [6] = twenty to thirty minutes after initial treatment
smiles,measurement,setting,value
CC(=O)C(=O)[O-].[Na+] [sodium pyruvate],"number of erosions, ulcers, and hemorrhages on the gastric mucosa",gastric mucosa [1],reduce
same,effect on cyanide intoxication,cyanide intoxication,antagonist
same,abnormally deformed red blood cells,L1210 leukemia,restore abnormally deformed red blood cells to normal
same,growth,[2],enhance
same,hydrogen peroxide production,[2],inhibit
same,toxicity of reactive oxygen intermediates,[2],protect
same,effect on lethal effects of sodium sulfide,sodium sulfide,protect
same,urinary calculi (stones),urinary calculi (stones),fewer
same,"onset and development of functional, morphological, and biochemical measures of acrylamide neuropathy",[3],retard
same,"number of erosions, ulcers, and hemorrhages on the gastric mucosa",gastric mucosa [4],reduce
same,MVV (maximum ventilatory volume),"[5]; After Two Months Treatment, Before: 19",25
same,DCO (diffusion of carbon monoxide),"[5]; After Two Months Treatment, Before: 27",39 MI/min/mm Hg
same,DSB (diffusion single breath),"[5]; After Two Months Treatment, Before: 42",52
same,ERV (expiratory reserve volume),"[5]; After Two Months Treatment, Before: 62",110
same,IC (inspiratory capacity),"[5]; After Two Months Treatment, Before: 64",69
same,O SAT (oxygen saturation),"[5]; After Two Months Treatment, Before: 91",95
same,SVC (slow vital capacity),"[5]; After Two Months Treatment, inhaled 5 ml of 5 millimolar solution, Before: 63",83
same,overall condition of the subject,[5]; after three (3) months treatment,marked improvement
same,Improved lung function,[5]; conclusion of the treatment,20%
same,"Increased exercise tolerance, tested and certified",[5]; conclusion of the treatment,close to that of a person without emphysema and restrictive airway disease
same,Mental attitude,[5]; conclusion of the treatment,greatly improved
same,Reactive airway disease,[5]; conclusion of the treatment,reduced to the point that routine use of inhalers is not needed
same,recurrence of decreased pulmonary functions,[5]; conclusion of the treatment,No recurrence
same,exercise tolerance,[5]; [6],increase
same,tidal volume,[5]; [6],increases
same,wheezing,[5]; [6],stops
same,Use of oxygen,[5]; when treatment started,eliminated immediately
same,overall results,[5]; within two (2) weeks,dramatic results
